According to PMC11714206, “Massively Parallel Screening of Toll/Interleukin‐1 Receptor (TIR)‐Derived Peptides Reveals Multiple Toll‐Like Receptors (TLRs)‐Targeting Immunomodulatory Peptides” (Advanced Science, 2024):
Several values for one entry are separate records, joined by “and”; a condition that tells them apart may be missing. Equal values may be shown once.

Biological target: T1, MAL^TIR (Homo sapiens, UniProt P58753)
T1 construct: MAL (residues 79–221); 6xHis; made in house; host or cells: E. coli BL21 (DE3)
Assay: T‐Surf phage library (P8 and P3) selection against MAL^TIR, four rounds, NGS read counts
Format: binding
Settings: for Population: P8_MAL pool: P8 T-Surf phage library, 4th round of selection against MAL TIR, share of NGS reads; for Rank (after): P8_MAL: rank by count after grouping; for Rank (before): P8_MAL: rank by count before grouping; for P3_MAL Rank (after) / P3_MAL Rank (before): P3 library; for P8_MAL Rank (after) / P8_MAL Rank (before): P8 library
Experimental: T‐Surf libraries were screened against the immobilized TIR domains of two major human TLR adaptor proteins, MAL^TIR and MyD88^TIR, allowing cross‐species selection of TIR‐binding motifs with 190 946 TIR‐derived peptides in a single binding assay (Scheme 1). Enriched phage pools from the fourth round of selection were analyzed using NGS after barcoding the peptide‐coding regions of the phage pools.
Phage display screening was performed by coating two wells of a 96‐well plate (Maxisorp, Thermo Fisher Scientific) with 100 µL of 5 µg mL^−1 TIR domains overnight; then, the coated wells were blocked with 200 µL of blocking buffer (0.2% BSA in PBS) and set aside for 1 h at 4 °C with gentle shaking. Next, 100 µL of the phage library was added to the wells and incubated for 1 h at room temperature (RT; 20 – 22 °C) with gentle shaking. The plate was washed four times with PBS containing 0.5% Tween‐20; the bound phages were eluted by adding 100 µL of 100 mM HCl to each well. The elute was neutralized with 10 µL of 1.0 M Tris‐HCl (pH 11.0). E. coli TG1 cells were grown to the log phase (A600 = ≈0.6), and 1 mL of the culture was incubated with 100 µL of the eluted phages for 30 min at 37 °C, with shaking at 200 rpm. Next, 1 µL of M13KO7 helper phages was added, followed by incubation for 45 min at 37 °C, with shaking. Subsequently, the cells were transferred to 25 mL of 2× yeast extract tryptone/carbenicillin/kanamycin medium and incubated overnight at 37 °C with shaking at 200 rpm. The amplified phages were precipitated with 20% PEG‐8000/2.5 M NaCl to be used for the next round of selection.
The naïve T‐Surf libraries in P8 and P3 and the enriched phage pools after four rounds were barcoded for NGS as previously described.^[ [59] ^] Briefly, 5 µL of the phage pool was used as a template for 20 cycles of a 50 µL PCR reaction using […] each of forward and reverse barcoded primers and PrimeSTAR Max DNA Polymerase. The PCR products were purified using Expin Gel SV (GeneAll). The NGS samples were quantified using qPCR, following the qPCR Quantification Protocol Guide (KAPA Library Quantification kits for Illumina Sequencing Platform), and qualified using the TapeStation High Sensitivity D1000 ScreenTape (Agilent Technologies). The indexed libraries were further sequenced by Macrogen (Seoul, Republic of Korea) using the NovaSeq platform (Illumina) with 100 bp paired‐end reads. The reads were demultiplexed by barcodes and filtered for an average Phred quality score of at least 30, followed by trimming the flanking consensus sequences using Cutadapt (version 2.3). Peptide sequence populations were analyzed according to the read counts.

[1] = selection against MAL, rank after grouping
[2] = selection against MAL, rank before grouping
[3] = selection against MAL TIR, rank by count after grouping
[4] = selection against MAL TIR, rank by count before grouping
[5] = 4R selection against MAL, rank after grouping
[6] = 4R selection against MAL, rank before grouping
[7] = selection against MAL, rank by count after grouping
[8] = selection against MAL, rank by count before grouping

T1 sequence (P58753 79-221): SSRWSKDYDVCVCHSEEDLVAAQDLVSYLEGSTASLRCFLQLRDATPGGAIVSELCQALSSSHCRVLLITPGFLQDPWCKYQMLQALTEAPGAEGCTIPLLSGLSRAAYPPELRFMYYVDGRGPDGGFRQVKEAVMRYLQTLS

*FYERLVSLILRDTKV
Population: 0.00402% and 0.00278%

ACFWEQRPTVLGKPPM
Rank (after): 417 | Rank (before): 1934

AFCIRRLRVKALRFS
P3_MAL Rank (after) [1]: 569 | P3_MAL Rank (before) [2]: 1783

AFCWAQLKSVLGNPTR
Rank (after): 123 | Rank (before): 1781

AFFCAHLRTVLGKPTM
P8_MAL Rank (after) [3]: 267 | P8_MAL Rank (before) [4]: 1586

AFFCAQLKRVLGNPTM
Rank (after): 102 | Rank (before): 1724

AFFCAQLKSVLGNPTM
Population: 0.00309%

AFFCAQLKSVMGNPTI
P8_MAL Rank (after) [5]: 675 | P8_MAL Rank (before) [6]: 1585

AFFCAQQKSVLRNPTK
P8_MAL Rank (after) [1]: 516 | P8_MAL Rank (before) [2]: 1725

AFFCEQLRTVIGKPTI
Rank (after): 414 | Rank (before): 1587

AFFCTHLKSVLDNPTM
P8_MAL Rank (after) [5]: 623 | P8_MAL Rank (before) [6]: 1589

AFFCTQLKSVLGNPTI
P8_MAL Rank (after) [5]: 587 | P8_MAL Rank (before) [6]: 1588

AFFCTQLLNVLRKPTI
P8_MAL Rank (after) [5]: 655 | P8_MAL Rank (before) [6]: 1590

AFFGAQLKSVLGNPPM
P8_MAL Rank (after) [3]: 210 | P8_MAL Rank (before) [4]: 1740

AFFGAQLKSVLGNPTM
Population: 0.0034%

AFFGAQLKSVLRNPTM
P8_MAL Rank (after) [3]: 191 | P8_MAL Rank (before) [4]: 1739

AFFGEQLVTGLAKRSS
P8_MAL Rank (after) [1]: 568 | P8_MAL Rank (before) [2]: 1742

AFFGEQVSPVLGKPTM
Rank (after): 426 | Rank (before): 1748

AFFLAQLKSEPTNPTM
P8_MAL Rank (after) [3]: 272 | P8_MAL Rank (before) [4]: 1581

AFFLAQLKSVLGKPTM
P8_MAL Rank (after) [1]: 533 | P8_MAL Rank (before) [2]: 1578

AFFLAQLKSVLGNPTT
P8_MAL Rank (after) [5]: 670 | P8_MAL Rank (before) [6]: 1579

AFFLAQLKSVMGNPTM
P8_MAL Rank (after) [5]: 645 | P8_MAL Rank (before) [6]: 1580

AFFLGAAEKRAGQSDDX
Population: 0.00371%

AFFLGTAAYRAGQTDD
P8_MAL Rank (after) [3]: 198 | P8_MAL Rank (before) [4]: 802

AFFRDQLRTVLGKPTM
P8_MAL Rank (after) [5]: 609 | P8_MAL Rank (before) [6]: 1751

AFFWAHLKSVLGKPTM
P8_MAL Rank (after) [3]: 233 | P8_MAL Rank (before) [4]: 1601

AFFWAHLRTVLGKPTI
P8_MAL Rank (after) [1]: 529 | P8_MAL Rank (before) [2]: 1657

AFFWAICIMRWCRRAF
P8_MAL Rank (after) [7]: 708 | P8_MAL Rank (before) [8]: 1656

AFFWAKLKRVLGNPTL
P8_MAL Rank (after) [1]: 525 | P8_MAL Rank (before) [2]: 1652

AFFWAQLKNVLGNPTM
Population: 0.00278%

AFFWAQLKNVLGSPTI
P8_MAL Rank (after) [7]: 718 | P8_MAL Rank (before) [8]: 1642

AFFWAQLKQLLRSDGR
P8_MAL Rank (after) [5]: 629 | P8_MAL Rank (before) [6]: 1610

AFFWAQLKRAGQSDD
P8_MAL Rank (after) [3]: 257 | P8_MAL Rank (before) [4]: 1607

AFFWAQLKSELGNPSM
P8_MAL Rank (after) [1]: 515 | P8_MAL Rank (before) [2]: 1644

AFFWAQLKSELGNPTM
Population: 0.00463%

AFFWAQLKSGLGNPTK
Rank (after): 186 | Rank (before): 1639

AFFWAQLKSTLGETSF
P8_MAL Rank (after) [1]: 567 | P8_MAL Rank (before) [2]: 1640

AFFWAQLKSVLGNLTK
Rank (after): 399 | Rank (before): 1623

AFFWAQLKSVLGNPAR
P8_MAL Rank (after) [5]: 605 | P8_MAL Rank (before) [6]: 1630

AFFWAQLKSVLGNPPV
Rank (after): 424 | Rank (before): 1661

AFFWAQLKSVLGNPTL
Population: 0.00309%

AFFWAQLKSVLGNPTM
Population: 0.00371% and 0.00278%

AFFWAQLKSVLGNRTM
Population: 0.00309%

AFFWAQLKSVLQSDD
P8_MAL Rank (after) [7]: 679 | P8_MAL Rank (before) [8]: 1635

AFFWAQLKSVLRTQTM
P8_MAL Rank (after) [7]: 696 | P8_MAL Rank (before) [8]: 1633

AFFWAQLNSVLGNTTM
P8_MAL Rank (after) [7]: 710 | P8_MAL Rank (before) [8]: 1608

AFFWAQLQSMLGNPTM
Rank (after): 138 | Rank (before): 1605

AFFWAQPKSVLGNPTV
Rank (after): 103 | Rank (before): 1645

AFFWAQQKSVLGDPTM
P8_MAL Rank (after) [7]: 722 | P8_MAL Rank (before) [8]: 1646

AFFWAQVKSVLGNTTM
P8_MAL Rank (after) [3]: 264 | P8_MAL Rank (before) [4]: 1603

AFFWARLQSVLGNPTM
P8_MAL Rank (after) [3]: 243 | P8_MAL Rank (before) [4]: 1654

AFFWDSCVPCWANRR
P8_MAL Rank (after) [3]: 258 | P8_MAL Rank (before) [4]: 1666

AFFWEHLRPLLGKQAM
P8_MAL Rank (after) [5]: 622 | P8_MAL Rank (before) [6]: 1711

AFFWEKLRTVLGRPTM
Rank (after): 477 | Rank (before): 1713

AFFWEQLKSVLGNPTM
Population: 0.00371%

AFFWEQLRPALKERLP
P3_MAL Rank (after) [7]: 746 | P3_MAL Rank (before) [8]: 1787

AFFWEQLRTALGNPTM
P8_MAL Rank (after) [7]: 704 | P8_MAL Rank (before) [8]: 1698

AFFWEQLRTLLGQPTM
Rank (after): 127 | Rank (before): 1699

AFFWEQLRTLLSKPTM
Rank (after): 433 | Rank (before): 1673

AFFWEQLRTVLDHVNDV
Rank (after): 141 | Rank (before): 836

AFFWEQLRTVLGKPR
Rank (after): 130 | Rank (before): 835

AFFWEQLRTVLGKPSI
P8_MAL Rank (after) [3]: 194 | P8_MAL Rank (before) [4]: 1684

AFFWEQLRTVLRKPTT
P8_MAL Rank (after) [5]: 631 | P8_MAL Rank (before) [6]: 1693

AFFWEQLRTVLRTPTL
P8_MAL Rank (after) [5]: 613 | P8_MAL Rank (before) [6]: 1676

AFFWEQMRTVLGKPTT
P8_MAL Rank (after) [5]: 612 | P8_MAL Rank (before) [6]: 1710

AFFWERLRPVLRKPTR
P8_MAL Rank (after) [5]: 637 | P8_MAL Rank (before) [6]: 1668

AFFWPKLKSGLGNPTM
P8_MAL Rank (after) [5]: 635 | P8_MAL Rank (before) [6]: 1717

AFFWPQLKSMLRNTTV
Rank (after): 418 | Rank (before): 1716

AFFWPQLKSVLGNPTK
Rank (after): 146 | Rank (before): 1715

AFFWQQLKSVPGNPTM
Rank (after): 154 | Rank (before): 1718

AFFWTHLKNLPRNPTF
P8_MAL Rank (after) [3]: 285 | P8_MAL Rank (before) [4]: 1721

AFFWTQLSTVMGKPTM
P8_MAL Rank (after) [1]: 527 | P8_MAL Rank (before) [2]: 1722

AFLCAHLKSVLGNPTI
Rank (after): 461 | Rank (before): 1804

AFLCDQLSTLMDPPTF
P8_MAL Rank (after) [1]: 578 | P8_MAL Rank (before) [2]: 1805

AFLCPQLKSVLGNPTI
Rank (after): 133 | Rank (before): 1753

AFLCTFLINLTHNTTF
Rank (after): 185 | Rank (before): 1757

AFLCTHLKNLIHKTTI
Rank (after): 415 | Rank (before): 1755

AFLCTQLNNVTDTPTL
Rank (after): 442 | Rank (before): 1756

AFLDPFLINLIQASIL
P8_MAL Rank (after) [5]: 616 | P8_MAL Rank (before) [6]: 1968

AFLDPFLITLIQASNF
P8_MAL Rank (after) [1]: 505 | P8_MAL Rank (before) [2]: 1908

AFLFTFLINLTHPSNF
Rank (after): 450 | Rank (before): 1803

AFLGAQLKSVLGKPTM
P8_MAL Rank (after) [1]: 554 | P8_MAL Rank (before) [2]: 1775

AFLGEQLHTMVDKPTM
P8_MAL Rank (after) [1]: 491 | P8_MAL Rank (before) [2]: 1776

AFLGHLYNALVQAGIH
Population: 0.00371%

AFLGTAAYRAGQTDD
Rank (after): 430 | Rank (before): 1777

AFLGTFLIKLMHATIY
P8_MAL Rank (after) [1]: 570 | P8_MAL Rank (before) [2]: 1906
